Laboratory results taken from patent US20240216395A1, “19-NOR C3,3-DISUBSTITUTED C21 -N-PYRAZOLYL STEROID FOR USE IN TREATING MAJOR DEPRESSIVE DISORDER AND […]” (priority 2021, published 2024).
Where two headings read alike, the source gives them in different places.

Columns and labels:
[1] = system: nondependent, recreational users of CNS depressants; experiment: Abuse potential main study, treatment phase: subjective VAS measures (Drug Liking, Overall Drug Liking, Take Drug Again, High, Good/Bad/Any Drug Effects, Alertness/Drowsiness, Drug Similarity)
[2] = Abuse potential main study: plasma pharmacokinetics after a single oral dose; format: in vivo, human; conditions: for Tmax / half-life / AUC(0-t) / Cmax: human, plasma
Procedure: Safety and tolerability endpoints included the frequency and severity of AEs and SAEs, the change from baseline in clinical laboratory assessments, vital signs, and ECG, and suicidality assessed by the Columbia-Suicide Severity Rating Scale (C-SSRS).
During the treatment phase, PK measures were assessed predose and at multiple time points, from 0.5 to 24 hours after dosing. Blood samples collected for plasma analyses were kept frozen (approximately −70° C. to −80° C.) until analysis. The quantification of the Compound (1) plasma concentration was performed by a bioanalytical laboratory (PRA Health Sciences, Lenexa, Kansas) using a validated liquid chromatography with a tandem mass spectroscopic method. The validated range of the assay was 1.00 to 500 ng/ml.
All PK analyses were based on the PK analysis set. Descriptive statistics included sample size, arithmetic mean, standard deviation, arithmetic coefficient of variation (CV), first quartile, median, and the minimum and maximum values […]. For summary statistics, PK concentration values below the limit of quantification were treated as zero. For calculating PK parameters, PK concentration values of zero that occurred prior to or after the first quantifiable concentration were imputed as zero or missing, respectively. The Compound (1) plasma PK parameters were estimated for each participant using noncompartmental analysis (Phoenix® WinNonlin® version 8.0 or later). The estimation of the terminal-elimination rate constant (λz) and λz-derived PK parameters were dependent upon inspection of PK data and a minimum of three time points in the terminal phase with adjusted R2 ≥0.8.

[3] = system: synaptic and extrasynaptic GABAA receptors; conditions: in vitro; cited from earlier work
patients with MDD = experiment: Phase 3 clinical trial of Compound (1) 30 mg in MDD : TEAEs; format: in vivo, human; conditions: previous Phase 3 clinical trial
From the text: The study design and results, if applicable, of the clinical trials identified by the NCT numbers are each incorporated by reference herein in its entirety.
The majority of patients receiving Compound (1) and experiencing a TEAE reported TEAEs mild and moderate in severity: clinical trial of Example 4 94%, Phase 2 clinical trial conducted by Applicant 100%, previous Phase 3 clinical trial conducted by Applicant 98%, and clinical trial of Example 1 95.0%.

[4] = Alprazolam 1.5 mg - Compound (1) 30 mg
[5] = Alprazolam 1.5 mg - Compound (1) 30 mg (relative abuse potential)
[6] = Alprazolam 1.5 mg - Compound (1) 60 mg
[7] = Alprazolam 1.5 mg - Compound (1) 60 mg (relative abuse potential)
[8] = Alprazolam 1.5 mg - Compound (1) 90 mg
[9] = Alprazolam 1.5 mg - Compound (1) 90 mg (relative abuse potential)
[10] = Alprazolam 3 mg - Compound (1) 30 mg
[11] = Alprazolam 3 mg - Compound (1) 30 mg (relative abuse potential)
[12] = Alprazolam 3 mg - Compound (1) 60 mg
[13] = Alprazolam 3 mg - Compound (1) 60 mg (relative abuse potential)
[14] = Alprazolam 3 mg - Compound (1) 90 mg
[15] = Alprazolam 3 mg - Compound (1) 90 mg (relative abuse potential)
[16] = Compound (1) 30 mg - placebo (absolute abuse potential)
[17] = Compound (1) 60 mg - placebo (absolute abuse potential)
[18] = Compound (1) 90 mg - placebo (absolute abuse potential)

## C[C@@]1(O)CC[C@H]2[C@H](CC[C@@H]3[C@@H]2CC[C@]2(C)[C@@H](C(=O)Cn4cc(C#N)cn4)CC[C@@H]32)C1 [Compound (1), 1-(2-((3R,5R,8R,9R,10S,13S,14S,17S)-3-hydroxy-3,13-dimethylhexadecahydro-1H-cyclopenta[a]phenanthren-17-yl)-2-oxoethyl)-1H-pyrazole-4-carbonitrile]
[1]; 30 mg
  Alert/Drowsiness VAS: time scores remained below neutral value of 50: 6-7 hours postdose
[1]; 60 and 90 mg
  Alert/Drowsiness VAS: time scores remained below neutral value of 50: 8-10 hours postdose
[1]; [4]
  Drug Liking Emax difference: 12.50
  Overall Drug Liking Emax difference: 13.92
  Take Drug Again Emax difference: 13.67
[1]; [5]
  Bad Drug Effects Emax difference: 0
  Good Drug Effects Emax difference: 24.62
  High Effects Emax difference: 24.59
[1]; [6]
  Drug Liking Emax difference: 2.00
  Overall Drug Liking Emax difference: 5.63
  Take Drug Again Emax difference: 0
[1]; [7]
  Bad Drug Effects Emax difference: 0
  Good Drug Effects Emax difference: 0.00
  High Effects Emax difference: 7.57
[1]; [8]
  Drug Liking Emax difference: −3.55
  Overall Drug Liking Emax difference: 1.12
  Take Drug Again Emax difference: 0
[1]; [9]
  Bad Drug Effects Emax difference: −12.93
  Good Drug Effects Emax difference: −12.00
  High Effects Emax difference: −12.00
[1]; [10]
  Drug Liking Emax difference: 14.00
  Overall Drug Liking Emax difference: 14.62
  Take Drug Again Emax difference: 16.43
[1]; [11]
  Bad Drug Effects Emax difference: 1.00
  Good Drug Effects Emax difference: 33.48
  High Effects Emax difference: 32.45
[1]; [12]
  Drug Liking Emax difference: 2.50
  Overall Drug Liking Emax difference: 6.33
  Take Drug Again Emax difference: 7.15
[1]; [13]
  Bad Drug Effects Emax difference: 1.00
  Good Drug Effects Emax difference: 7.50
  High Effects Emax difference: 15.42
[1]; [14]
  Drug Liking Emax difference: 0.00
  Overall Drug Liking Emax difference: 1.82
  Take Drug Again Emax difference: 0
[1]; [15]
  Bad Drug Effects Emax difference: −1.82
  Good Drug Effects Emax difference: −1.00
  High Effects Emax difference: −4.14
[1]; Compound (1) 30 mg - placebo
  Drug Liking Emax difference: 12.00
  Overall Drug Liking Emax difference: 6.50
  Take Drug Again Emax difference: 9.00
[1]; [16]
  Bad Drug Effects Emax difference: 0
  Good Drug Effects Emax difference: 19.98
  High Effects Emax difference: 19.21
[1]; Compound (1) 60 mg - placebo
  Drug Liking Emax difference: 18.12
  Overall Drug Liking Emax difference: 16.75
  Take Drug Again Emax difference: 18.57
[1]; [17]
  Bad Drug Effects Emax difference: 0
  Good Drug Effects Emax difference: 40.53
  High Effects Emax difference: 36.23
[1]; Compound (1) 90 mg
  Drug Similarity: Benzodiazepines Similarity median score: 92.5
  Drug Similarity: Opioids Similarity median score: 39.0
[1]; Compound (1) 90 mg - placebo
  Drug Liking Emax difference: 25.00
  Overall Drug Liking Emax difference: 21.27
  Take Drug Again Emax difference: 24.50
[1]; [18]
  Bad Drug Effects Emax difference: 0
  Good Drug Effects Emax difference: 59.00
  High Effects Emax difference: 55.80
[1]; all dosages, 12 hours postdose
  Drug Similarity: Placebo Similarity median score: zero
[2]; 60 mg single oral dose
  AUC0-24, geometric mean: 982 ng·h/mL
[2]; 30, 60, 90 mg, capsule
  T½ values, range over doses: 10 to 11 h
[2]; oral, 90 mg, 30, 60, 90 mg, capsule, read-out: Tmax (median), all three doses
  Tmax: 5.1 h
[2]; oral, 90 mg, 30, 60, 90 mg, capsule, read-out: T½ values, range over doses
  half-life: 9.92 to 10.9 h
[2]; oral, 30, 60, 90 mg, read-out: AUC0-24 values, range over doses
  AUC(0-t): 520 to 1330 ng·h/mL
[2]; oral, 30, 60, 90 mg, read-out: Cmax geometric mean values, range over doses
  Cmax: 55.5 to 123 ng/mL
[2]; po, 30 mg, 30 mg single oral dose (n = 66), read-out: T½, geometric mean (converted)
  half-life: 10.1 h
[2]; po, 30 mg, 30 mg single oral dose, read-out: Tmax, median
  Tmax: 5.1 h
[2]; po, 60 mg, 60 mg single oral dose (n = 60), read-out: T½, geometric mean (converted)
  half-life: 9.9 h
[2]; po, 60 mg, 60 mg single oral dose, read-out: Tmax, median
  Tmax: 5.1 h
[2]; po, 90 mg, 90 mg single oral dose (n = 62), read-out: T½, geometric mean (converted)
  half-life: 10.9 h
[2]; po, 90 mg, 90 mg single oral dose, read-out: Tmax, median
  Tmax: 5.1 h
[2]; 30 mg single oral dose (n = 65), read-out: Cmax, geometric mean
  Cmax: 55.5 ng/mL
[2]; 30 mg single oral dose, read-out: AUC0-24, geometric mean
  AUC(0-t): 520 ng·h/mL
[2]; 60 mg single oral dose (n = 66), read-out: Cmax, geometric mean
  Cmax: 97.6 ng/mL
[2]; 90 mg single oral dose (n = 67), read-out: Cmax, geometric mean
  Cmax: 123 ng/mL
[2]; 90 mg single oral dose, read-out: AUC0-24, geometric mean
  AUC(0-t): 1330 ng·h/mL
[3]
  GABAA receptor binding and current potentiation: bind to both synaptic and extrasynaptic GABAA receptors, potentiating both phasic and tonic currents
Patients with MDD
  Patients with a TEAE whose TEAEs were mild and moderate in severity: 98%
